Data: the NIST ThermoML archive (doi:10.1016/j.jct.2004.07.027)

Assay: mn = molality of the nth substance listed, in mol/kg
Settings: 350 kPa, Liquid, Extra sensitive DSC

C1COCCOCCOCCOCCOCCO1 [1,4,7,10,13,16-hexaoxacyclooctadecane] + O
apparent molar heat capacity [J/K/mol]
Settings | 338.15 K | 343.15 K | 348.15 K | 353.15 K | 358.15 K | 363.15 K
m1 = 0.01001 | 925.2 | 932.5 | 939.9 | 946.2 | 951.4 | 956.3
m1 = 0.02001 | 920.5 | 929.1 | 936.3 | 942 | 946.9 | 950.6
m1 = 0.03002 | 920.9 | 929.3 | 936.4 | 942.4 | 947.4 | 951.5
m1 = 0.0401 | 927.9 | 936.1 | 942.7 | 949 | 954.1 | 957.7
m1 = 0.04995 | 928.1 | 936.3 | 943.1 | 949.2 | 954 | 957.7
m1 = 0.06015 | 927.8 | 936.3 | 943.5 | 949 | 953.6 | 957.3
m1 = 0.08002 | 927.2 | 935.5 | 942.4 | 948.1 | 952.9 | 956.5
m1 = 0.1224 | 926.44 | 934.88 | 941.88 | 947.6 | 952.29 | 955.71
m1 = 0.1472 | 926.89 | 935.27 | 942.17 | 947.8 | 952.42 | 955.85
m1 = 0.1935 | 925.61 | 934.03 | 941.03 | 946.84 | 951.41 | 954.72
m1 = 0.2925 | 924.48 | 932.93 | 939.88 | 945.53 | 949.82 | 952.93
